From a melting point compilation (Tetko et al.; mined from patent text by program, amines drawn as free bases though some values may be those of a salt)
Residues, ends and D or L forms follow the SMILES beside them.

Row | melting point [°C] | SMILES
1 | 109 | Fc1cccc(F)c1COCc1nc2ccccc2n1Cc1c(F)cccc1F
2 | 90 to 91 | Cc1cc(C2=NOC(O)(C(F)(F)F)C2Cl)c(F)cc1Cl (centres undefined)
3 | 215 to 216 | COc1ccc(S(=O)(=O)NC(=O)c2ccc(C(=O)OC(C)C)nc2)cc1
4 | 196 to 197 | CC(C)=NOCc1nc2c(N)nc3cc(-c4ccccc4)cnc3c2n1CC(C)C
5 | 236 | COc1cc2c(C=O)c[nH]c2c2c1OCCC2=O
6 | 143 to 144 | O=C(c1ccc(Cn2cnc3ccncc32)cc1)N1CCOCC1
7 | 62 to 72 | O=S(=O)(CC1CC=CCO1)c1ccc(Oc2ccc(OC(F)(F)F)cc2)cc1 (centres undefined)
8 | 135 to 137 | CC(=O)c1ccc(C(=O)N2Cc3cccn3Cc3ccccc32)cc1
9 | 300 to 302 | Cc1ccc2c3[nH]nc(Cc4ccccc4)c3c(=O)n(-c3ccccc3)c2n1
10 | 119 to 120 | CC1=c2cc(Br)ccc2=NC1=O
11 | 52 to 53 | COc1cc(C(=O)C#CC(=O)OCC=C(C)C)cc(OC)c1OC
12 | 157 to 158 | CCC(CC)(CCCS(N)(=O)=O)COc1nn2ncnc2cc1C
13 | 230 | CCC1c2nc[nH]c2CCN1C(=S)NC (centres undefined)
14 | 73 to 74 | C=CC(O)C1OC(C)(C)OC1C(O)CO (centres undefined)
15 | 91 | COc1ccc2c(c1)CC(C(=O)NCCOc1ccc(C(=O)O)cc1)N2S(=O)(=O)c1ccc(-c2ccc(F)cc2F)cc1 (centres undefined)
16 | 156 to 157 | CC(C)=COc1ccc2c(C)cc(=O)oc2c1C(=O)C=Cc1cccnc1

Row | melting point [°C] | SMILES
17 | 275 | CC(C)C(C(=O)NC1CCCCC1)N1CC(=O)NCC(=O)NCC(=O)NCC(=O)NCC(=O)NCC1=O (centres undefined)
18 | 193 to 194 | Clc1ccc(OCc2ccnc3ncnn23)cc1
19 | 273 to 276 | O=C1NC(=O)c2c1c(-c1c(Cl)cccc1Cl)cc1c2c2cc(O)ccc2n1CCCBr
20 | 140 to 142 | CC(C)(C)NNC(=O)c1nn(-c2ccc(F)cc2F)c2c1C1CCC2C1 (centres undefined)
21 | 143 to 145 | CC(=O)NC(Cc1ccccc1)C(=O)NC(Cc1ccccc1)C(=O)NC(Cc1c[nH]cn1)C(=O)O (stereo not drawn) (Ac-Phe-Phe-His-OH; configuration not given here)
22 | > 200 | O=C1CNc2ncc(-c3cccnc3)cc2N1Cc1c(Cl)cccc1Cl
23 | 188 to 189 | O=C(O)COc1ccc2c(-c3ccccc3F)noc2c1Cl
24 | 310 to 330 | Cc1c(-c2cccc(F)c2)sc2nc(N)[nH]c(=O)c12
25 | 163 to 164 | N#Cc1ccc(Cc2ccc(O)cc2)cc1
26 | 169 to 171 | Cc1ccccc1-c1ccc(C(=O)N2Cc3ccc(C(=O)NCCc4ccc(Cl)cc4)n3Cc3ccccc32)cc1C
27 | 74 to 75 | O=C(Cc1ccc(Oc2ccccc2)cc1)NCCC1=CCCCC1
28 | 120 to 121 | CCCNC(=O)c1nc(-c2ccccc2)c(-c2ccc(=O)n(Cc3ccccc3)n2)s1
29 | 139 to 142 | COC(=O)C1(C(=O)O)CCc2cc(C3CCCCC3)c(Cl)cc21 (centres undefined)
30 | 172 to 173 | CCn1cnc(=O)c(-c2cccc(C(F)(F)F)c2)c1
31 | 254 | ON=c1c2nccc3cccc(c32)n2cccc12

The remaining lines, values behind:

Row | SMILES | melting point [°C]
32 | CCCc1nc2c(N)nc3cc(Br)ccc3c2n1CCCON=C(C)C | 182 to 183
33 | CCOC(=O)C1Cc2cc(C(=O)c3ccccc3F)c(O)c(Cl)c2O1 (centres undefined) | 119 to 120
34 | O=C(O)CCCC=CCCc1ccc(OCc2ccccc2)cc1 | 63 to 65
35 | CNC(=O)N1CC(Oc2ccc(C(F)(F)F)cc2Cl)C1 | 160 to 161
36 | CC1(C)CC(=O)Oc2ccc(O)cc21 | 95 to 96
37 | CC(C)(C)c1cc(C2=CCCCC2)c(O)c(C(C)(C)C)c1 | 102 to 104
38 | O=C1CCCc2ccc(OCc3ccc(Cl)c(Cl)c3)cc21 | 122 to 123
39 | OC1(C2(Cl)CC2)Cc2ncnn2C(CC(Cl)(Cl)Cl)C1 (centres undefined) | 153 to 154
40 | Nc1ccc(-c2cccnc2)c(C(F)(F)F)c1 | 92 to 93
41 | CCCCc1nc2ccnc(Cl)c2n1Cc1ccc(-c2ccccc2C#N)cc1 | 134
42 | C[C@H]1N(C(=O)c2ccc(C(F)(F)F)cc2)CC(O)O[C@@]1(Cn1cncn1)c1ccc(Cl)cc1Cl (relative stereo) | 199 to 200
43 | C/C(=C\c1ccc(OC(C)C)cc1Oc1ncc(C(F)(F)F)cc1Cl)C(=O)NS(=O)(=O)NCCc1cccs1 | 130 to 131
44 | O=S(=O)(OCC1OC2CC(CC(OS(=O)(=O)c3ccc(Br)cc3)C2)O1)c1ccc(Br)cc1 (centres undefined) | 128
45 | CNC1(c2ccccc2)CCN(C(c2ccccc2)(c2ccccc2)c2ccccc2)CC1 | 125
46 | O=C(Nc1ccccc1)Nc1nc2ccc(OC(=O)c3ccccc3)cc2s1 | 245 to 249
47 | O=C(NCc1cccnc1)c1ccc2n1Cc1ccccc1N(C(=O)c1ccccc1)C2 | 197
48 | CCCCS(=O)c1ncn(C(=O)N(CCC)CCC)n1 (centres undefined) | 39 to 40
49 | SC1=NCCN1Cc1ccccc1 | 177 to 182
50 | CNc1nnc(-c2cc3c(Oc4ccc(Cl)cc4)cncc3s2)s1 | 226 to 229
51 | CCN(CC)c1ccc2cc(C(=O)OCCCCCCO)c(=O)oc2c1 | 85 to 86
52 | CNC(=O)Cn1c(-c2ccc(Cl)cc2)nc2ccc(Cl)nc21 | > 250
53 | CC(C(=O)NCC(F)(F)C(F)(F)F)C(=O)NC1C(=O)N(C)c2cc(F)ccc2OC1C (centres undefined) | 126 to 134
54 | COc1ccccc1N1CCN(CCCCc2ccc(C3CCC(=O)N3)cc2)CC1 (centres undefined) | 130 to 131

Row | SMILES | melting point [°C]
55 | CC(C)(C)Nc1c(NCc2cccc(C(F)(F)F)c2)c(=O)c1=O | 237 to 239
56 | Cc1[nH]cnc1CSCCN=C(N)N | 141 to 142
57 | COC1CC(n2cc(C=CBr)c(=O)[nH]c2=O)OC1CF (centres undefined) | 177
58 | CC(C)c1nccc2c(C(C)C(=O)O)cccc12 (centres undefined) | 138
59 | CC(C)COc1ccc(C(=O)NCC(=O)O)cc1 | 140 to 142
60 | O=c1n(CC(O)c2ccccc2)c2c(Br)c(Br)c(Br)c(Br)c2n1CC(O)c1ccccc1 (centres undefined) | 121 to 123
61 | CCC(CC)C(c1ccnn1-c1ccccc1)N(C)S(=O)(=O)c1ccc(Cl)s1 (centres undefined) | 126 to 128
62 | Cc1cc2c(-c3ccccc3F)nc(=O)[nH]c2s1 | 282 to 284
63 | C=C(Cc1c(Cl)cccc1Cl)C(=O)O | 132
64 | O=C(COc1ccc(C(=O)CN2CCN(c3ccncc3)CC2)cc1)NCc1ccccc1 | 150 to 151
65 | CC1(O)CCC2(C)C(CCC3C2CCC2(C)C(c4cc(CO)no4)CCC32)C1 (centres undefined) | 192 to 193
66 | O=C(NC(=O)c1ccccc1Cl)Nc1ccc(F)c(C(F)(F)F)c1Cl | 208
67 | OP(O)C1(NC(c2ccccc2)c2ccccc2)CCCC1 | 204 to 205
68 | CC(C)OC(=O)c1cc(-n2c(=O)c3c(n(C)c2=O)CCC3)c(F)cc1Cl | 111 to 113
69 | COc1ccc2[nH]c(COC(C)=O)c(C=O)c2c1[N+](=O)[O-] | 201 to 203
70 | COc1ccc2nc(NC(=O)C(CC3CCCC3)c3ccc(S(=O)(=O)N4CCOCC4)cc3)sc2n1 (centres undefined) | 120 to 123
71 | O=C(Nc1ncco1)c1cnc2c(C(F)(F)F)cccc2c1O | 304
72 | C[Si](C)(C)Nc1ccn([Si](C)(C)C)c(=O)n1 | 252 to 256
73 | CCOC(=O)C(=CNc1ccccc1OC)C(C)=O | 103 to 105
74 | Nc1ccnc(-c2nnn(Cc3cc(C(F)(F)F)cc(C(F)(F)F)c3)c2-c2ccccc2)c1C(=O)c1ccccc1Cl | 156
75 | Fc1cc(OCCBr)ccc1OCc1ccccc1 | 63 to 65
76 | Cc1cc(C)c(S(=O)(=O)OCCCCOS(=O)(=O)c2c(C)cc(C)cc2C)c(C)c1 | 109
77 | COC(=O)c1cccc2c1-c1ccc3c(c1C(c1ccccc1)O2)C(C)=CC(C)(C)N3 (centres undefined) | 150 to 152

Row | SMILES | melting point [°C]
78 | COc1cccc(CNC(=O)c2nc3sc(C(N)=O)c(C)c3c(=O)[nH]2)c1 | 258
79 | CC(C)CCOc1ccc(C(=O)C(O)O)cc1 | 80 to 85
80 | O=c1[nH]c2ncc(-c3ccc(F)cc3)nc2c(O)c1-c1c(F)cc(F)cc1F | 285 to 288
81 | Cn1nc(-c2ccccc2)cc1-c1ccccc1 | 52 to 53
82 | CCCCn1c(COc2ccccc2)nc2c(N)nc3ccccc3c21 | 172 to 173
83 | CN1CCN(c2nc3sc4c(NCc5cccnc5)ncnc4c3c3c2COC(C)(C)C3)CC1 | 251 to 252
84 | CCOC(=O)C1COc2ccc(C(C)=O)cc2O1 (centres undefined) | 57
85 | COc1cc(C2CCN(C[C@H](O)CO)CC2)ccc1Nc1ncc2ccc(-c3ccccc3OC)n2n1 | 66 to 80
86 | CCCCOCCOC(=O)C1=C(C)NN=C(CC)C1c1cccc([N+](=O)[O-])c1 (centres undefined) | 122
87 | O=C(Oc1ccccc1)N1Cc2ccccc2C(c2ccccc2)c2ccccc21 (centres undefined) | 155 to 165
88 | Cc1c2c(cc3c(-c4ccccc4F)noc13)CC(C(=O)O)O2 (centres undefined) | 188 to 189
89 | CC1CCCC(C)N1Cc1nc(-c2ncn3c2C2CCN2C(=O)c2c(Cl)cccc2-3)no1 (centres undefined) | 233 to 236
90 | COC(=O)C1=C(C)NC(C2CCCCC2)=C(S(=O)(=O)N(C)C)C1c1cccc([N+](=O)[O-])c1 (centres undefined) | 185 to 188
91 | CCOC[C@H]1CN(c2ccc(OCc3ccccc3)cc2)C(=O)O1 | 92
92 | [N-]=[N+]=C1C(=O)Oc2ccc(S(=O)(=O)Cl)cc2C1=O | 185
93 | CCOC(=O)Cc1ccc(C(=O)c2ccccc2)cc1[N+](=O)[O-] | 61 to 62
94 | CCOC(=O)C1=Cc2ccsc2S(=O)(=O)N1c1cccc(OC)c1 | 107 to 109
95 | O=C(COc1ccc(Cl)cc1Cc1cc(Cl)ccc1O)OCc1ccccc1 | 135 to 137
96 | O=c1c2c(Cl)cc(Cl)cc2n(Cc2ccccc2)c(=O)n1Cc1ccc(Br)cc1 | 163 to 168
97 | COC(=O)c1cc2ccncc2c2sc3ccccc3c12 | 174 to 176
98 | CCOC(=O)c1cc2cc(-c3ccccc3)ccc2nn1 | 160 to 162
99 | CC1=NN=C(c2ccc([N+](=O)[O-])cc2)c2ccc(Cl)cc2C1 | 227 to 228
